Measured values as given in US20060069132A1, “Azolecarboxamide herbicides” (priority 2004, published 2006).

Columns and labels:
wheat = test: Test B postemergence herbicide test; type: in vivo, Triticum aestivum; parameters: key to Wheat plant response rating: 0 = no effect, 100 = complete control
Method: (§1) At the same time, plants selected from these crop and weed species and also blackgrass (Alopecurus myosuroides Huds.), wheat (Triticum aestivum L.) and wild oat (Avena fatua L.) were treated with postemergence applications of test chemicals formulated in the same manner. Plants ranged in height from 2 to 18 cm (1- to 4-leaf stage) for postemergence treatments. Plant species in the flooded paddy test consisted of rice (Oryza sativa L.), small flower umbrella sedge (Cyperus difformis L.), ducksalad (Heteranthera limosa (Sw.) Willd.) and barnyardgrass (Echinochloa crus-galli (L.) Beauv.) grown to the 2-leaf stage for testing. Treated plants and controls were maintained in a greenhouse for 13 to 15 days, after which time all species were compared to controls and visually evaluated. Plant response ratings, summarized in Table B, are based on a scale of 0 to 100 where 0 is no effect and 100 is complete control. A dash (-) response means no test result.

pigweed = test: Test B pre-/postemergence herbicide test; type: in vivo, Amaranthus retroflexus
Excerpt: (§2) Seeds selected from barnyardgrass (Echinochloa crus-galli (L.) Beauv.), Surinam grass (Urochloa decumbens (Staph) R. D. Webster, previously named Brachiaria decumbens Stapf), cocklebur (Xanthium strumarium L.), corn (Zea mays L.), large crabgrass (Digitaria sanguinalis (L.) Scop.), giant foxtail (Setaria faberi Herim.), lambsquarters (Chenopodium album L.), morningglory (Ipomoea coccinea L.), pigweed (Amaranthus retroflexus L.), rice (Oryza sativa L.) and velvetleaf (Abutilon theophrasti Medik.) were planted and treated preemergence with test chemicals formulated in a non-phytotoxic solvent mixture which included a surfactant.
as §1

ducksalad = test: Test B flooded paddy test; type: in vivo, Heteranthera limosa; conditions: 1000 g ai/ha, scale 0 to 100 (0 no effect, 100 complete control)
Method: as §1

wild oat = test: Test B postemergence herbicide test; type: in vivo, Avena fatua
Method: as §1

lambsquarters = test: Test B pre-/postemergence herbicide test; type: in vivo, Chenopodium album
Excerpt: as §2, §1

large crabgrass [1] = test: Test B pre-/postemergence herbicide test; type: in vivo, Digitaria sanguinalis
Excerpt: as §2, §1

Surinam grass = test: Test B pre-/postemergence herbicide test; type: in vivo, Urochloa decumbens
Excerpt: as §2, §1

morningglory [2] = test: Test B pre-/postemergence herbicide test; type: in vivo, Ipomoea coccinea
Excerpt: as §2, §1

corn = test: Test B pre-/postemergence herbicide test; type: in vivo, Zea mays
Excerpt: as §2, §1

[3] = tested on: small flower umbrella sedge; test: Test B flooded paddy test; type: in vivo, Cyperus difformis; conditions: scale 0 to 100 (0 no effect, 100 complete control)
Method: as §1

barnyardgrass [4] = test: Test B flooded paddy test; type: in vivo, Echinochloa crus-galli; conditions: scale 0 to 100 (0 no effect, 100 complete control)
Method: as §1

rice = test: Test B flooded paddy test; type: in vivo, Oryza sativa; conditions: scale 0 to 100 (0 no effect, 100 complete control)
Method: as §1

barnyardgrass [5] = test: Test B pre-/postemergence herbicide test; type: in vivo, Echinochloa crus-galli; conditions: for Barnyardgrass plant response rating: Postemergence, scale 0 (no effect) to 100 (complete control)
Excerpt: as §2, §1

blackgrass = test: Test B postemergence herbicide test; type: in vivo, Alopecurus myosuroides
Method: as §1

giant foxtail [6] = test: Test B pre-/postemergence herbicide test; type: in vivo, Setaria faberi
Excerpt: as §2, §1

velvetleaf [7] = test: Test B pre-/postemergence herbicide test; type: in vivo, Abutilon theophrasti
Excerpt: as §2, §1

cocklebur = test: Test B pre-/postemergence herbicide test; type: in vivo, Xanthium strumarium
Excerpt: as §2, §1

velvetleaf [8] = test: Test A pre-/postemergence herbicide test; type: in vivo, Abutilon theophrasti
Method in brief: (§3)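 Sandy loam soil given preemergence directed spray; plants at 2 to 10 cm, one- to two-leaf stage, sprayed to runoff postemergence, compounds in non-phytotoxic solvent with surfactant. Injury rated visually versus untreated controls after about ten greenhouse days, 0 (no effect) to 100 (complete control); dash means not tested.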

redroot pigweed = test: Test A pre-/postemergence herbicide test; type: in vivo, Amaranthus retroflexus
Method in brief: as §3

barnyardgrass [9] = test: Test A pre-/postemergence herbicide test; type: in vivo, Echinochloa crus-galli
Method in brief: as §3

large crabgrass [10] = test: Test A pre-/postemergence herbicide test; type: in vivo, Digitaria sanguinalis
Method in brief: as §3

morningglory [11] = test: Test A pre-/postemergence herbicide test; type: in vivo, Ipomoea spp.
Method in brief: as §3

giant foxtail [12] = test: Test A pre-/postemergence herbicide test; type: in vivo, Setaria faberi
Method in brief: as §3

[13] = 500 g ai/ha, scale 0 to 100, 0 no effect, 100 complete control, preemergence
[14] = Postemergence, 500 g ai/ha, scale 0 (no effect) to 100 (complete control)
[15] = postemergence, 125 g ai/ha, scale 0 to 100
[16] = 125 g ai/ha, 0 is no effect, 100 is complete control, preemergence
[17] = Postemergence, 250 g ai/ha, 0 to 100 scale, 0 no effect, 100 complete control
[18] = Postemergence, 1000 g ai/ha, 0 to 100 scale, 0 no effect, 100 complete control
[19] = Preemergence, 1000 g ai/ha, visual rating, 0 to 100 scale (0 no effect, 100 complete control)
[20] = preemergence, 250 g ai/ha, visual injury, 0 to 100 scale (0 no effect, 100 complete control)

CCN(CC)C(=O)c1cncc(NC(=O)c2nn(C(C)(C)C)nc2C)c1 [Compound 428]
30: Plant response rating (0 to 100 scale), Pigweed (pigweed; [16]) | Pigweed plant response rating (pigweed; [14]) | Morningglory plant response rating (morningglory [2]; [14]) | Rice plant response rating (rice; 1000 g ai/ha)
0: Wheat plant response rating (wheat; [13]) | Wheat plant response rating (wheat; [14]) | Wheat plant response rating (wheat; [15]) | Ducksalad plant response rating (ducksalad) | Oat, Wild plant response rating (wild oat; [14]) | Oat, Wild plant response rating (wild oat; [15]) | Plant response rating (0 to 100 scale), Lambsquarters (lambsquarters; [16]) | Plant response rating (0 to 100 scale), Crabgrass, Large (large crabgrass [1]; [16]) | Plant response rating (0 to 100 scale), Surinam Grass (Surinam grass; [16]) | Plant response rating (0 to 100 scale), Morningglory (morningglory [2]; [16]) | Plant response rating (0 to 100 scale), Corn (corn; [16]) | Corn plant response rating (corn; [15]) | Sedge, Umbrella plant response rating ([3]; 1000 g ai/ha) | Barnyardgrass plant response rating (barnyardgrass [4]; 1000 g ai/ha) | Plant response rating (0 to 100 scale), Barnyardgrass (barnyardgrass [5]; [16]) | Barnyardgrass plant response rating (barnyardgrass [5]; 125 g ai/ha) | Blackgrass plant response rating (blackgrass; [14]) | Blackgrass plant response rating (blackgrass; [15]) | Plant response rating (0 to 100 scale), Foxtail, Giant (giant foxtail [6]; [16]) | Plant response rating (0 to 100 scale), Velvetleaf (velvetleaf [7]; [16]) | Plant response rating (0 to 100 scale), Cocklebur (cocklebur; [16]) | Cocklebur plant response rating (cocklebur; [15])
20: Pigweed plant response rating (pigweed; [15]) | Crabgrass, Large plant response rating (large crabgrass [1]; [14]) | Surinam Grass plant response rating (Surinam grass; [14]) | Morningglory plant response rating (morningglory [2]; [15]) | Velvetleaf plant response rating (velvetleaf [7]; [14])
40: Lambsquarters plant response rating (lambsquarters; [14])
10: Lambsquarters plant response rating (lambsquarters; [15]) | Crabgrass, Large plant response rating (large crabgrass [1]; [15]) | Surinam Grass plant response rating (Surinam grass; [15]) | Corn plant response rating (corn; [14]) | Barnyardgrass plant response rating (barnyardgrass [5]; 500 g ai/ha) | Foxtail, Giant plant response rating (giant foxtail [6]; [14]) | Foxtail, Giant plant response rating (giant foxtail [6]; [15]) | Velvetleaf plant response rating (velvetleaf [7]; [15]) | Cocklebur plant response rating (cocklebur; [14])

C=Cn1nc(C(C)(C)C)cc1C(=O)Nc1cccc(C(=O)NC2CC2)c1 [Compound 39]
100: Pigweed plant response rating (redroot pigweed; [19])
25: Barnyardgrass plant response rating (barnyardgrass [9]; [19])
55: Pigweed plant response rating (redroot pigweed; [20]) | Plant response rating, Barnyardgrass (barnyardgrass [9]; [18])
85: Crabgrass, Large plant response rating (large crabgrass [10]; [19])
70: Pigweed plant response rating (redroot pigweed; [17])
15: Barnyardgrass plant response rating (barnyardgrass [9]; [20])
75: Plant response rating, Pigweed (redroot pigweed; [18])
20: Velvetleaf plant response rating (velvetleaf [8]; [19]) | Morningglory plant response rating (morningglory [11]; [19]) | Foxtail, Giant plant response rating (giant foxtail [12]; [20])
0: Morningglory plant response rating (morningglory [11]; [17]) | Plant response rating, Morningglory (morningglory [11]; [18]) | Morningglory plant response rating (morningglory [11]; [20])
35: Plant response rating, Crabgrass, Large (large crabgrass [10]; [18]) | Crabgrass, Large plant response rating (large crabgrass [10]; [20])
10: Velvetleaf plant response rating (velvetleaf [8]; [17]) | Plant response rating, Velvetleaf (velvetleaf [8]; [18]) | Velvetleaf plant response rating (velvetleaf [8]; [20]) | Barnyardgrass plant response rating (barnyardgrass [9]; [17]) | Crabgrass, Large plant response rating (large crabgrass [10]; [17]) | Foxtail, Giant plant response rating (giant foxtail [12]; [17])
45: Plant response rating, Foxtail, Giant (giant foxtail [12]; [18])
40: Foxtail, Giant plant response rating (giant foxtail [12]; [19])

CCN(CC)C(=O)c1cccc(NC(=O)c2nn(C(C)(C)C)nc2C)n1 [Compound 440]
10: Pigweed plant response rating (pigweed; [14]) | Lambsquarters plant response rating (lambsquarters; [14]) | Crabgrass, Large plant response rating (large crabgrass [1]; [14]) | Surinam Grass plant response rating (Surinam grass; [14])
30: Oat, Wild plant response rating (wild oat; [14])
0: Wheat plant response rating (wheat; [13]) | Wheat plant response rating (wheat; [14]) | Wheat plant response rating (wheat; [15]) | Pigweed plant response rating (pigweed; [15]) | Lambsquarters plant response rating (lambsquarters; [15]) | Crabgrass, Large plant response rating (large crabgrass [1]; [15]) | Surinam Grass plant response rating (Surinam grass; [15]) | Morningglory plant response rating (morningglory [2]; [15]) | Corn plant response rating (corn; [15]) | Sedge, Umbrella plant response rating ([3]; 125 g ai/ha) | Barnyardgrass plant response rating (barnyardgrass [4]; 125 g ai/ha) | Rice plant response rating (rice; 125 g ai/ha) | Barnyardgrass plant response rating (barnyardgrass [5]; 125 g ai/ha) | Barnyardgrass plant response rating (barnyardgrass [5]; 500 g ai/ha) | Foxtail, Giant plant response rating (giant foxtail [6]; [14]) | Foxtail, Giant plant response rating (giant foxtail [6]; [15]) | Velvetleaf plant response rating (velvetleaf [7]; [14]) | Velvetleaf plant response rating (velvetleaf [7]; [15]) | Cocklebur plant response rating (cocklebur; [14]) | Cocklebur plant response rating (cocklebur; [15])
20: Oat, Wild plant response rating (wild oat; [15]) | Morningglory plant response rating (morningglory [2]; [14]) | Corn plant response rating (corn; [14]) | Blackgrass plant response rating (blackgrass; [14]) | Blackgrass plant response rating (blackgrass; [15])
